Test results taken from patent US9107870B2, “Angiotensin peptides in treating marfan syndrome and related disorders” (TARIX PHARMACEUTICALS LTD, priority 2013, dated 2015).
Entries after “also recorded” stand apart in the source; their conditions may differ.

How the values were obtained:
[1] = tested on: Fbn1^C1039G/+ mice (Marfan mice); experiment: Aortic root growth in Marfan mice by in vivo echocardiography; conditions: 500 μg/kg/day subcutaneous daily for 60 days, compared to Marfan mice treated with placebo, FIG. 1
Excerpt: (§1) In this Example, a total of 20 mice were used, with 8 mice being wild-type and 12 being Fbn1^C1039G+ mice, also referred to as “Marfan mice”, that are each […] for a fibrillin-1 (Fbn1) allele encoding a cysteine substitution, Cys1039Gly (C1039G), in an epidermal growth factor-like domain of Fbn1 (Fbn1^C1039G/+).
The Fbn1C1039G mice are a well-accepted model of Marfan Syndrome and the Fbn1 mutation is the most common class of mutation causing Marfan Syndrome. Typically, the aortic root in Fbn1C1039G mice undergoes progressive dilatation, evident as early as 2 weeks of age. […] This observed size difference generally becomes more pronounced over time. […] In addition, Fbn1C1039G mice show increased collagen deposition, which is an indirect marker of increased TGF-β signaling.
In order to determine the effects of angiotensin (1-7) peptides, here TXA127, on the normal course of disease development, both wild-type and Marfan mice were each separated into two groups once the mice reached 2 months of age. […]
The primary endpoint of this study was degree of aortic growth observed over the 60 day treatment period, as measured by in vivo echocardiography. […]

wild-type mice = experiment: Aortic root growth in wild-type mice by in vivo echocardiography; conditions: 500 μg/kg/day subcutaneous daily for 60 days, compared to wild type mice treated with placebo, FIG. 1
Excerpt: as §1
In order to determine the effects of angiotensin (1-7) peptides, here TXA127, on the normal course of disease development, both wild-type and Marfan mice were each separated into two groups once the mice reached 2 months of age. In each of the wild-type mice and Marfan mice, the placebo control group received daily subcutaneous saline injections for 60 days, while the TXA127 group received daily subcutaneous injections of TXA127 at a dose of 500 μg/kg/day for 60 days.
The primary endpoint of this study was degree of aortic growth observed over the 60 day treatment period, as measured by in vivo echocardiography. A baseline echocardiogram was performed just prior to the beginning of the treatment period and then again just prior to sacrifice. After the 60 day treatment period, mice were sacrificed and tissue samples were taken for histological and other analysis.

Q: Which “degree of aortic root growth” value [1] does the source give for “Asp^1-Arg^2-Val^3-Tyr^4-Ile^5-His^6-Pro^7 (DRVYIHP) [TXA127]” here?
A: highly significant reduction; also recorded: essentially eliminated

Q: What about the aortic root growth (wild-type mice) of the same substance?
A: no statistically significant effect
